The text below walks through data of patent US10087191B2, “Piperidine derivative and preparation method and pharmaceutical use thereof” (Jiangsu Hengrui Medicine Co., Ltd., priority 2015, dated 2018).

Structures are written as SMILES. Like-named read-outs stand apart in the source and are kept apart here.

One data set deals with MCF7 cells. The experiment in a line: Inhibition of the proliferation of MCF7 cells (Cell Titer-Glo). The class given is cell-based. Conditions: Homo sapiens, MCF-7 cells, 72 hours, read-out: IC50 value of inhibition effect on the proliferation of MCF7 cells. Here is the method: The object of this experiment was to determine the inhibition effect of the compounds on the proliferation activity of MCF7 cells, and the in vitro activity of the compounds was evaluated according to the IC50 value.
After incubation for 24 hours, the medium was removed, then 90 μl of the medium containing 2% FBS and 10 μl of the drug were added to each well, 10 μl of DMSO were added to the control group, and the blank group contained only 100 μl medium containing 2% FBS. The plate was gently shaken and incubated in a incubator at 37° C., 5% CO2. After 72 hours, 50 μl of mixed Cell Titer-Glo (Promega, Cat. No. G7571) were added to each well. The plate was shaken until the ingredients were well mixed, and placed at room temperature for 10 minutes, then the chemiluminescence signal value was determined.
The values of the chemiluminescence signals vs the logarithmic concentrations of the compounds were plotted using Graghpad Prism to obtain IC50 values.
(ATP-based viability assays read luminescence as a measure of living cells.)

A further data set concerns the target ERα (Homo sapiens (Human), UniProt P03372). The experiment in a line: Degradation effect on ERα in MCF-7 cells (ERα Duoset ELISA). Particulars: read-out: IC50 value of the degradation effect on ERα. The class given is cell-based. Here is the method:
In order to determine the degradation effect on ER induced by the compounds of the present invention, the following method was used to determine the degradation effect of the compounds of the present invention on ER.
MCF-7 cell line (TChu 74, Cell Bank of Chinese Academy of Sciences typical culture preservation Committee)
ERα Duoset Kit (#DYC5715E, R&D System)
MCF-7 cells were incubated in DMEM/F-12 medium containing 10% FBS.
On the first day of the experiment, MCF-7 cells were resuspended in DMEM/F-12 medium containing 10% FBS treated by activated carbon, then inoculated into a 48-well plate with a density of 50,000 cells/well and incubated for 22-24 hours.
On the second day of the experiment, the test compound was diluted with medium and added to a 48-well plate. The ERα-capture antibody was diluted to 1 μg/ml with PBS, and added to a 96-well plate at 100 μl/well. The plate was sealed and coated overnight at room temperature.
On the third day of the experiment, the coated 96-well plate was washed twice with PBS, added with a sealing solution (1% BSA in PBS) at 110 μl/well and sealed for 1 hour at room temperature. The 48-well plate was washed once with PBS, and the residual liquid was removed. Then, 60 μl of lysis (6 M urea, 1 mM EDTA, 0.5% Triton X-100, 1 mM PMSF, Protease Inhibitor cocktail) was added to each well. After lysis on ice for 15 minutes, the diluent (1 mM EDTA, 0.5% TritonX-100 dissolved in PBS) was added. The cell-diluted lysate was transferred to a 96-well plate at 100 μl/well, then the plate was incubated at room temperature for 2 hours. The diluted primary antibody was added after the plate was washed 4 times with a washing liquid (PBST). After incubation for 1 hour, the 96-well plate was washed 4 times, and the second antibody was added, then the plate was incubated for 30 minutes. After the plate was washed with a washing liquid, TMB chromogenic solution was added and incubated for 15 minutes. The reaction was stopped by the addition of 1 M H2SO4, then the light absorption at 450 nm was read.
In general terms: In an ELISA, binding on a coated surface is turned into a signal by an enzyme label.

For the next data set, the target named is estrogen receptor (ER) (Homo sapiens (Human), UniProt P03372). The experiment in a line: Inhibition of the binding of estrogen (E) to estrogen receptor (ER), MCF-7/ERE-luciferase reporter cells. Conditions: MCF-7/ERE-luciferase cells, 0.1 nM estradiol, 24 hours; read-out: IC50 value of inhibition effect on the binding of E to ER. The class given is cell-based. Here is the method:
The inhibition effect of the compounds on the binding of E to ER in vitro was tested by the following method.
The object of this experiment was to determine the inhibition effect of the compounds on the binding of E to ER, and the in vitro activity of the compounds was evaluated according to the IC50 value.
MCF-7/ERE-luciferase cells were inoculated into the MEM medium (hyclone, SH30024.01B) containing 10% charcoal stripped FBS (Moregate, FBSF), 1% sodium pyruvate (Sigma, Cat. No. S8636), 1% nonessential amino acids (Sigma, Cat. No. M7145) and 500 μg/ml G418 in a 96-well plate with a density of 30,000 cells/well, and the cells were incubated under the conditions of 37° C. and 5% CO2. […] After incubation for 24 hours, the medium was removed, then 0.1 nM estradiol (Sigma, Cat. No. E2758) and 10 μl of the drug diluted with the medium were added to each well, and the control group was added with DMSO. The plate was gently shaken and incubated in a incubator at 37° C., 5% CO2. After 24 hours, the cell culture medium was discarded.
The inhibition effect of the compounds of the present invention on the binding of E to ER was tested by the experiment described above.
A general note: Reporter assays use an easily measured gene product as a stand-in for the process of interest.

Data set [1] in a line: Pharmacokinetics assay in BALB/C nude mice after intragastrical administration. The data set is classed as in vivo. Particulars: female, mouse, plasma, po, 3 mg/kg; for AUC: read-out: Area Under Curve AUC; for CL/F: read-out: Clearance CL/F (converted); for half-life: read-out: Half-Life t½ (converted); for MRT: read-out: Mean Residence Time MRT; for Cmax: read-out: Plasma Conc. Cmax. Here is the method: BALB/C nude mice were used as test animals. The drug concentration in plasma at different time points was determined by LC/MS/MS after intragastrical administration of the compounds of Examples 10, 14, 20, 21, 57, 68, 71, 73, 74, 76 and 89 to BALB/C nude mice. The pharmacokinetic behavior of the compounds of the present invention was studied and evaluated in BALB/C nude mice.
Ninety-nine (99) female BALB/C nude mice were equally divided into 11 groups, which were purchased from SINO-BRITSH SIPPR/BK LAB. ANIMAL LTD., CO, with Certificate No.: SCXK (Shanghai) 2008-0016.
The appropriate amount of each test compound was weighed, and successively added with 9% PEG400+0.5% tween 80+0.5% PVP+90% aqueous solution of 0.5% CMC.
After an overnight fast, 99 female BALB/C nude mice were equally divided into 11 groups, and administered the test compounds intragastrically at an administration volume of 0.2 mL/10 g.
Blood (0.1 mL) was sampled (3 mice at each time point) at 0.5, 1.0, 2.0, 4.0, 6.0, 8.0, 11.0 and 24.0 hours after administration. The samples were stored in heparinized test tubes, and centrifuged for 10 minutes at 3,500 rpm to separate the blood plasma. The plasma samples were stored at −20° C. The plasma concentration of the test compounds in BALB/C nude mice after intragastrical administration was determined by LC/MS/MS.
Pharmacokinetic parameters of the compounds of Examples 10, 14, 20, 21, 57, 68, 71, 73, 74, 76 and 89 of the present invention are shown below.

Sequence of ERα (P03372 whole entry): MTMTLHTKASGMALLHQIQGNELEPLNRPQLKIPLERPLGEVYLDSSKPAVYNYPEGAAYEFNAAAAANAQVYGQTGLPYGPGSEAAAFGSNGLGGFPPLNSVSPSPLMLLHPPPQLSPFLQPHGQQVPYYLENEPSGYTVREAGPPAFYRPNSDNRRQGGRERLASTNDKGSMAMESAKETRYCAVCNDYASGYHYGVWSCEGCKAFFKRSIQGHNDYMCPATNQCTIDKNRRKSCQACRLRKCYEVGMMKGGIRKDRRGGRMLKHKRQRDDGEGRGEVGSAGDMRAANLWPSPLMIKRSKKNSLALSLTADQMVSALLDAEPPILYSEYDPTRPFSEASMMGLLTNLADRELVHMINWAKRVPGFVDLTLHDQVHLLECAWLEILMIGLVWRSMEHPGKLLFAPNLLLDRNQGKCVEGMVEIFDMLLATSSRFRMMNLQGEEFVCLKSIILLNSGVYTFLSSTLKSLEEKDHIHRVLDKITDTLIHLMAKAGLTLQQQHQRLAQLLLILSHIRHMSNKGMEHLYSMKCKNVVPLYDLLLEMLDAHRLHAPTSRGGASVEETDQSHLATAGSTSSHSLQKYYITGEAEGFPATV
Sequence of estrogen receptor (ER) (P03372 whole entry): as above

For `CC1Cc2cc3c(cc2C(c2c(F)cc(/C=C/C(=O)O)cc2F)N1CC(C)(C)F)OCO3` [Example 1, (E)-3-(3,5-difluoro-4-((5S,7R/5R,7S)-6-(2-fluoro-2-methylpropyl)-7-methyl-5,6,7,8-tetrahydro-[1,3]dioxolo[4,5-g]isoquinolin-5-yl)phenyl)acrylic acid], the IC50 with MCF7 cells amounted to 0.12 nM. The DC50 at ERα is 0.11 nM.

Take `CC1Cc2cc3c(cc2C(c2c(F)cc(/C=C/C(=O)O)cc2F)N1CC(C)(C)F)OCCO3` [Example 2, (E)-3-(3,5-difluoro-4-((6S,8R/6R,8S)-7-(2-fluoro-2-methylpropyl)-8-methyl-2,3,6,7,8,9-hexahydro-[1,4]dioxino[2,3-g]isoquinolin-6-yl)phenyl)acrylic acid]: the IC50 at estrogen receptor (ER) came to 3.2 nM; in the data set on MCF7 cells, 0.49 nM. Also, the DC50 on ERα (MCF-7 cells) is 0.95 nM.

For `CC1Cc2c(oc3ccccc23)C(c2c(F)cc(/C=C/C(=O)O)cc2F)N1CC(C)(C)F` [Example 4, (E)-3-(3,5-difluoro-4-((1R,3R/1S,3S)-2-(2-fluoro-2-methylpropyl)-3-methyl-1,2,3,4-tetrahydrobenzofuro[2,3-c]pyridin-1-yl)phenyl)acrylic acid], the IC50 in the data set with MCF7 cells worked out at 0.19 nM. For the same compound, the DC50 at ERα (MCF-7 cells) was found to be 0.56 nM.

Take `CC1Cc2c(sc3ccccc23)C(c2c(F)cc(/C=C/C(=O)O)cc2F)N1CC(C)(C)F` [Example 5, (E)-3-(3,5-difluoro-4-((1R,3R/1S,3S)-2-(2-fluoro-2-methylpropyl)-3-methyl-1,2,3,4-tetrahydrobenzo[4,5]thieno[2,3-c]pyridin-1-yl)phenyl)acrylic acid]: the IC50 in the data set on MCF7 cells was 1.2 nM. For the same compound, the DC50 on ERα (MCF-7 cells) was determined as 3.94 nM.

Take `CC1Cc2sc3ccccc3c2C(c2c(F)cc(/C=C/C(=O)O)cc2F)N1CC(C)(C)F` [Example 6, (E)-3-(3,5-difluoro-4-((1R,3R/1S,3S)-2-(2-fluoro-2-methylpropyl)-3-methyl-1,2,3,4-tetrahydrobenzo[4,5]thieno[3,2-c]pyridin-1-yl)phenyl)acrylic acid]: in the data set on MCF7 cells, the IC50 is 1.91 nM. Moreover, the DC50 at ERα (MCF-7 cells) is 1.92 nM.

`CC1Cc2cc(-c3cnn(C(F)F)c3)ccc2C(c2c(F)cc(/C=C/C(=O)O)cc2F)N1CC(C)(C)F` (stereo not shown) [Example 13]: in the data set with MCF7 cells, the IC50 was 0.46 nM. Also, the DC50 on ERα (MCF-7 cells) was 6.93 nM.

Turning to `CC1Cc2cc(-c3cnn(C)c3)c(F)cc2C(c2c(F)cc(/C=C/C(=O)O)cc2F)N1CC(C)(C)F` [Example 16, (E)-3-(3,5-difluoro-4-((1S,3R/1R,3S)-7-fluoro-2-(2-fluoro-2-methylpropyl)-3-methyl-6-(1-methyl-1H-pyrazol-4-yl)-1,2,3,4-tetrahydroisoquinolin-1-yl)phenyl)acrylic acid], in the data set with MCF7 cells, the IC50 was found to be 0.47 nM. For the same compound, the DC50 at ERα (MCF-7 cells) was 3.11 nM.

For the compound `CCn1cc(-c2cc3c(cc2F)C(c2c(F)cc(/C=C/C(=O)O)cc2F)N(CC(C)(C)F)C(C)C3)cn1` [Example 17, (E)-3-(4-((1S,3R/1R,3S)-6-(1-ethyl-1H-pyrazol-4-yl)-7-fluoro-2-(2-fluoro-2-methylpropyl)-3-methyl-1,2,3,4-tetrahydroisoquinolin-1-yl)-3,5-difluorophenyl)acrylic acid], the IC50 with MCF7 cells came out at 0.34 nM. Also, on ERα (MCF-7 cells), the DC50 amounted to 1.43 nM.

For `CCCn1cc(-c2ccc3c(c2)CC(C)N(CC(C)(C)F)C3c2c(F)cc(/C=C/C(=O)O)cc2F)cn1` [Example 18, (E)-3-(3,5-difluoro-4-((1S,3R/1R,3S)-2-(2-fluoro-2-methylpropyl)-3-methyl-6-(1-propyl-1H-pyrazol-4-yl)-1,2,3,4-tetrahydroisoquinolin-1-yl)phenyl)acrylic acid], the IC50 in the data set on MCF7 cells came to 1.03 nM. Also, on ERα (MCF-7 cells), the DC50 is 4.2 nM.

`Cc1ncc(-c2ccc3c(c2)CC(C)N(CC(C)(C)F)C3c2c(F)cc(/C=C/C(=O)O)cc2F)o1` [Example 49, (E)-3-(3,5-difluoro-4-((1S,3R/1R,3S)-2-(2-fluoro-2-methylpropyl)-3-methyl-6-(2-methyloxazol-5-yl)-1,2,3,4-tetrahydroisoquinolin-1-yl)phenyl)acrylic acid]: the IC50 with MCF7 cells came out at 1.63 nM. For the same compound, the DC50 at ERα (MCF-7 cells) came to 6.29 nM.

Take `CC1Cc2c(ccc3[nH]ncc23)C(c2c(F)cc(/C=C/C(=O)O)cc2F)N1CC(C)(C)F` [Example 70, (E)-3-(3,5-difluoro-4-((6S,8R/6R,8S)-7-(2-fluoro-2-methylpropyl)-8-methyl-6,7,8,9-tetrahydro-3H-pyrazolo[4,3-f]isoquinolin-6-yl)phenyl)acrylic acid]: in the data set with MCF7 cells, the IC50 turned out to be 0.14 nM. For the same compound, the DC50 on ERα (MCF-7 cells) worked out at 0.77 nM.

As to `CC1Cc2c(oc3cccc(F)c23)C(c2c(F)cc(/C=C/C(=O)O)cc2F)N1CC(C)(C)F` [Example 73, (E)-3-(3,5-difluoro-4-((1R,3R/1S,3S)-5-fluoro-2-(2-fluoro-2-methylpropyl)-3-methyl-1,2,3,4-tetrahydrobenzofuro[2,3-c]pyridin-1-yl)phenyl)acrylic acid], the IC50 in the data set on MCF7 cells was 0.2 nM. For the same compound, at ERα (MCF-7 cells), the DC50 worked out at 0.76 nM. Further, in data set [1], the AUC was 3950 ng·h/mL, the CL/F is 210 mL/min/kg, the half-life was 1.47 h and the MRT is 2.45 h. Further, the Cmax in data set [1] came to 1490 ng/mL.

`CCn1cc(-c2ccc3oc4c(c3c2)CC(C)N(CC(C)(C)F)C4c2c(F)cc(/C=C/C(=O)O)cc2F)cn1` [Example 76, (E)-3-(4-((1R,3R/1S,3S)-6-(1-ethyl-1H-pyrazol-4-yl)-2-(2-fluoro-2-methylpropyl)-3-methyl-1,2,3,4-tetrahydrobenzofuro[2,3-c]pyridin-1-yl)-3,5-difluorophenyl)acrylic acid]: in the data set on MCF7 cells, the IC50 came to 0.59 nM. Moreover, at ERα (MCF-7 cells), the DC50 turned out to be 2.43 nM. In data set [1], the AUC came out at 26900 ng·h/mL, the CL/F is 31 mL/min/kg, the half-life is 4.53 h and the MRT amounted to 5.7 h. In addition, the Cmax in data set [1] is 5460 ng/mL.

The term AUC denotes concentration integrated over time. The term half-life denotes the time in which the quantity being followed falls by half. By MRT is commonly meant the average time that molecules of a dose stay in the body. The Cmax is the highest concentration seen after dosing.
